Laboratory results from the NIST ThermoML archive (doi:10.1016/j.jct.2015.09.036).

How the values were obtained:
[1] = 303.15 K, 100 kPa, Liquid; for viscosity: Capillary tube (Ostwald / Ubbelohde) method; for speed of sound: Frequency=2 MHz, Linear variable-path acoustic interferometer; for mass density: Pycnometric method
[2] = xn = mol fraction of the nth substance listed; settings: 303.15 K, 100 kPa, Liquid; for viscosity: Capillary tube (Ostwald / Ubbelohde) method; for speed of sound: Frequency=2 MHz, Linear variable-path acoustic interferometer; for mass density: Pycnometric method

CCCCC(CC)COP(=O)(O)OCC(CC)CCCC (configuration not stated) [bis(2-ethylhexyl) hydrogen phosphate]
[1]
Settings	mass density [kg/m3]	speed of sound [m/s]	viscosity [mPa·s]
–	961.3	1293	19.29

CCCCC(CC)COP(=O)(O)OCC(CC)CCCC (configuration not stated) [bis(2-ethylhexyl) hydrogen phosphate] + Cc1ccccc1
[2]
Settings	mass density [kg/m3]	speed of sound [m/s]	viscosity [mPa·s]
x1 = 0.0896	884.9	1283.7	0.722
x1 = 0.1624	902.1	1284.5	0.907
x1 = 0.2077	910.5	1285.1	1.086
x1 = 0.2898	923.1	1286	1.576
x1 = 0.3279	928.8	1286.6	1.914
x1 = 0.4205	937.6	1287.4	3.098
x1 = 0.5082	944.5	1288.2	4.679
x1 = 0.5903	949.3	1289	6.432
x1 = 0.6814	953.3	1289.9	8.931
x1 = 0.7388	955.2	1290.5	10.84
x1 = 0.8105	957.1	1291.2	13.17
x1 = 0.8876	958.8	1291.9	15.68
x1 = 0.9427	960.1	1292.5	17.43
x1 = 1	961.3	1293	19.29

CCCCC(CC)COP(=O)(O)OCC(CC)CCCC (configuration not stated) [bis(2-ethylhexyl) hydrogen phosphate] + Clc1ccccc1
[2]
Settings	mass density [kg/m3]	speed of sound [m/s]	viscosity [mPa·s]
x1 = 0.0568	1075.2	1253.2	0.917
x1 = 0.1474	1051.9	1255.5	1.535
x1 = 0.2143	1038.4	1257.7	1.859
x1 = 0.3498	1017.9	1262.8	2.804
x1 = 0.4357	1007.6	1266.4	3.777
x1 = 0.4788	1002.9	1268.4	4.502
x1 = 0.5322	997.1	1270.8	5.526
x1 = 0.6285	987.8	1275.4	7.879
x1 = 0.7146	980.4	1279.5	10.49
x1 = 0.7704	975.8	1282.2	12.21
x1 = 0.8433	970.4	1285.7	14.56
x1 = 0.8789	968	1287.3	15.86
x1 = 0.9501	963.8	1290.8	17.84
x1 = 1	961.3	1293	19.29

CCCCC(CC)COP(=O)(O)OCC(CC)CCCC (configuration not stated) [bis(2-ethylhexyl) hydrogen phosphate] + O=[N+]([O-])c1ccccc1
[2]
Settings	mass density [kg/m3]	speed of sound [m/s]	viscosity [mPa·s]
x1 = 0.0912	1139	1429.5	2.409
x1 = 0.1743	1104.1	1415.6	2.925
x1 = 0.2624	1075.4	1401.5	3.319
x1 = 0.3698	1048.6	1385.2	4.274
x1 = 0.4211	1038.1	1377.5	4.689
x1 = 0.4779	1027.1	1369.1	5.585
x1 = 0.5326	1017.4	1361.1	6.687
x1 = 0.6102	1004.6	1349.8	8.662
x1 = 0.6933	992.8	1337.6	10.95
x1 = 0.7299	988.1	1332.2	11.91
x1 = 0.7867	981.4	1323.9	13.51
x1 = 0.8598	973.6	1313.2	15.51
x1 = 0.9387	966.2	1301.9	17.75
x1 = 1	961.3	1293	19.29

Clc1ccccc1 [chlorobenzene]
[1]
Settings	mass density [kg/m3]	speed of sound [m/s]	viscosity [mPa·s]
–	1095.2	1251.8	0.724

Clc1ccccc1 [chlorobenzene] + CCCCC(CC)COP(=O)(O)OCC(CC)CCCC
[2], x2 = 0
Settings	mass density [kg/m3]	speed of sound [m/s]	viscosity [mPa·s]
–	1095.2	1251.8	0.724

O=[N+]([O-])c1ccccc1 [nitrobenzene]
[1]
Settings	mass density [kg/m3]	speed of sound [m/s]	viscosity [mPa·s]
–	1193.6	1445.6	1.611

O=[N+]([O-])c1ccccc1 [nitrobenzene] + CCCCC(CC)COP(=O)(O)OCC(CC)CCCC
[2], x2 = 0
Settings	mass density [kg/m3]	speed of sound [m/s]	viscosity [mPa·s]
–	1193.6	1445.6	1.611

Cc1ccccc1 [toluene]
[1]
Settings	mass density [kg/m3]	speed of sound [m/s]	viscosity [mPa·s]
–	856.2	1282.6	0.528

Cc1ccccc1 [toluene] + CCCCC(CC)COP(=O)(O)OCC(CC)CCCC
[2], x2 = 0
Settings	mass density [kg/m3]	speed of sound [m/s]	viscosity [mPa·s]
–	856.2	1282.6	0.528
